Data set [1] concerns mechanical allodynia in STZ-induced DPN rats. In words: Prevention of neuropathic pain in STZ-induced rat model of DPN, paw withdrawal threshold (von Frey filaments). It counts as in vivo. The conditions noted are these: prevention protocol; for von Frey, gm mean ± SEM (PWT): PS 8% hydrogel or sulindac 0.7% hydrogel topical 3 times a day from day -2 to day 28, lidocaine 5% cream once 30 min before PWT, PWT on day 28; for effect on PWT compared to vehicle (prevention study): day 28, result in words. An excerpt: DPN was induced via chemically-induced increases in blood glucose in rats, using streptozotocin (STZ).
The animal model corresponds to that used for Example 1, but using a prevention protocol. As in Example 1, the outcome measure, determining the effect of the treatment on the prevention of mechanical allodynia, was the PWT test, using von Frey filaments. The measurements were taken at day −3, before treatment or induction of neuropathic pain associated with DPN, and again at the end of the study period (day 28).
The rats were randomised into treatment groups as follows, all having an average body weight of about 225 g. • 1. Group 1: naïve rats (n=6) • 2. Group 2: STZ only (n=8) • 3. Group 3: STZ plus vehicle (n=8) • 4. Group 4: STZ plus PS 8% (n=8) • 5. […] Group 6: STZ plus lidocaine cream 5% (n=8)
Each treatment group was subjected to a PWT assessment at day −3 in order to determine the baseline of mechanical allodynia. […] For those rats in the lidocaine treatment group, lidocaine cream was applied only once to both hind paws of the rats 30 min before the final PWT measurement on day 28. On day 0, neuropathic pain associated with DPN was induced with the administration of STZ, and the blood glucose was checked on day 3. Four weeks after the administration of STZ, to provide sufficient time to allow the neuropathic pain associated with DPN (manifested as mechanical allodynia) to develop (see the STZ only group in FIG. 5), the rats were subjected to the paw withdrawal threshold test.

Data set [2] shares this test system. In words: Treatment of neuropathic pain in STZ-induced rat model of DPN, paw withdrawal threshold (von Frey filaments). The format is in vivo, Sprague-Dawley rats. To be noted: for effect on PWT compared to vehicle (treatment study): established DPN, result in words. The procedure: DPN was induced via chemically-induced increases in blood glucose in rats, using streptozotocin (STZ). This is a well-established model for DPN (see Morrow, Current Protocols in Neuroscience (2004); 29(1): 1-11), in which the STZ, an antibiotic extract from Streptomyces acromogenes, selectively damages the β cells of the pancreas.
Sprague-Dawley rats were fasted for 4-6 hours before being injected intraperitoneally with 45 mg/kg STZ. This was performed for all experimental groups, except the naïve group. In order to prevent hypoglycaemic death, rats received 10% sucrose water as the sole water source for the first 48 hours after injection. In order to ensure only those rats considered diabetic (i.e., having non-fasting plasma glucose levels of >250 mg/dL) were included in the study, blood glucose was measured at 72 hours after the STZ injection.
This delay between STZ injection and treatment allows the establishment of chronic pain (allodynia) associated with peripheral and central sensitisation. PS (as an 8% hydrogel) or vehicle control were administered topically to both hind paws of the rats 3 times a day for 3 weeks starting at week 4 after STZ injection. […] 5% lidocaine cream (a positive control) was applied only once to both hind paws of the rats 30 minutes before measurement of PWT.
The rats were split into 8 study groups, with those in the experimental groups (1-4) having an average body weight of about 225 g, and those in the control groups (5-8) having an average body weight of about 335 g, as follows: • 1. Group 1: naïve rats (n=5) • 2. Group 2: STZ only (n=6) • 3. Group 3: STZ plus vehicle (n=6) • 4. Group 4: STZ plus PS (8% hydrogel) (n=7) • 5. Group 5: STZ plus oral vehicle (n=8) • 6. […] Group 7: STZ plus 5% lidocaine cream (n=8) • 8.
In order to determine the outcome of the treatment, mechanical allodynia was measured using the well-established method of von Frey filaments. In particular, a simplified up-down method for estimating paw withdrawal threshold (PWT) using von Frey filaments was used (as described in Bonin et al., Molecular Pain (2014); 10(26):1-10)). The results of the PWT test are expressed as force applied (gm).

A short description of data set [3]: Pharmacokinetics and biodistribution of PS and its metabolites after topical administration to hind paws. To be noted: for AUC0-24h of PS / Tmax of PS / T1/2 of PS / Cmax: 50 μl per hind paw; for Cmax: read-out: Cmax of PS, mean ± SEM. The procedure:
PS 8% ointment was applied topically to each hind paw (50 μl per paw) with gentle rubbing. At 0.5, 1, 3, 5, 12, 18, and 24 h, mice (n=4-5 mice/time point) were euthanized with CO2 inhalation. Blood was drawn immediately after death. Tissues, including paw skin, paw muscle, leg muscle, the sciatic nerve and lumbar DRG bilaterally were dissected quickly, immediately frozen in liquid nitrogen and stored at −80° C. until analyzed.
Following addition of acetonitrile (twice the volume of the homogenate), the mixture was sonicated for 10 min, centrifuged at 13,200 rpm for 15 min, and analyzed by HPLC, as reported (Wen et al., 2019).
Since the metabolism and PK/biodistribution of PS vary depending on its route of administration, we studied both in normal mice in which PS was administered topically to their hind paws, with particular attention to the sciatic nerve and the dorsal root ganglia (DRG) that are affected in DPN.

The mark [4] stands for this setting: treatment protocol from week 4, sulindac 0.7% hydrogel topical 3 times a day for 1 week (PWT week 5), lidocaine 5% cream once 30 min before PWT, pregabalin 10 mg/kg oral once 1 h before PWT.
The mark [5] stands for this setting: dorsal root ganglia (DRG), normal mice, PS 8% ointment topical.
[6] abbreviates: leg muscle, normal mice, PS 8% ointment topical.
The mark [7] stands for this setting: paw muscle, normal mice, PS 8% ointment topical.
Where [8] appears, read: paw skin, normal mice, PS 8% ointment topical.
Where [9] appears, read: sciatic nerve (SN), normal mice, PS 8% ointment topical.

Five compounds from patent publication US12295963B2, “Treating pain associated with diabetic peripheral neuropathy” (MEDICON PHARMACEUTICALS, INC., priority 2021, dated 2025) can be followed below.

Read-outs that look alike come from different tables or passages of the source.

As for `CCN(CC)CC(=O)Nc1c(C)cccc1C` [lidocaine], in data set [1], the “von Frey, gm mean ± SEM (PWT)” value worked out at 34.3 ± 1.6 gm and the “effect on PWT compared to vehicle (prevention study)” value was “significantly increased the PWT compared to vehicle”. Besides, the “effect on PWT compared to vehicle (treatment study)” value in data set [2] is “significant increases in PWT compared to vehicle”. For the same compound, the “PWT, gm Mean ± SEM” value in data set [2] (setting [4]) is 26.0 ± 1.8 gm.
As to `CC(C)C[C@H](CN)CC(=O)O` [pregabalin], in data set [2], the “effect on PWT compared to vehicle (treatment study)” value is on record as “significant increases in PWT compared to vehicle”.
With `CC1=C(CC(=O)O)c2cc(F)ccc2/C1=C\c1ccc(S(C)(=O)=O)cc1` [sulindac sulfone], the “detection as metabolite of PS” value in data set [3] (mouse tissues and blood after PS 8% ointment topical, HPLC, limit of quantitation 0.05 μM) is “detected”.
On to `CC1=C(CC(=O)O)c2cc(F)ccc2/C1=C\c1ccc([S+](C)[O-])cc1` (stereo not drawn) [sulindac], for which, in data set [1], the “von Frey, gm mean ± SEM (PWT)” value was 27.7 ± 1.4 gm and the “effect on PWT compared to vehicle (prevention study)” value is listed as “no significant effect on PWT compared to the vehicle”. The “effect on PWT compared to vehicle (treatment study)” value in data set [2] was “failed to suppress the reduced PWT caused by STZ”. For the same compound, the “PWT, gm Mean ± SEM” value in data set [2] (setting [4]) is recorded as 23.2 ± 2.6 gm.
For orientation: Cmax means the peak of the concentration-time curve. With phosphosulindac [PS], in data set [1], the “von Frey, gm mean ± SEM (PWT)” value was found to be 33.1 ± 1.6 gm and the “effect on PWT compared to vehicle (prevention study)” value is “significant increase in PWT compared to vehicle”. Moreover, the “PS in the systemic circulation” value in data set [3] (blood, normal mice, PS 8% ointment topical, limit of quantitation 0.1 μM) is on record as “no PS was detected”. Also, in data set [3] (setting [5]), the “AUC0-24h of PS” value came out at 4.5 µM·h, the “Tmax of PS” value stood at 1080 min and the Cmax was 0.3 ± 0.1 µM. In data set [3] (setting [6]), the “AUC0-24h of PS” value came to 171.6 µM·h, the “T1/2 of PS” value is given as 20.6 h, the “Tmax of PS” value was 30 min and the Cmax stood at 35 ± 3.6 µM. Besides, the “Tmax of PS in all tissues with the exception of DRG” value in data set [3] (normal mice, PS 8% ointment topical) worked out at 30 min. Moreover, in data set [3] (setting [7]), the “AUC0-24h of PS” value turned out to be 411.2 µM·h, the “T1/2 of PS” value was found to be 11.4 h, the “Tmax of PS” value is 30 min and the Cmax worked out at 102 ± 4.6 µM. Besides, in data set [3] (setting [8]), the “AUC0-24h of PS” value is 1,609.8 μM · h, the “T1/2 of PS” value stood at 16.1 h, the “Tmax of PS” value stood at 30 min and the Cmax was 195 ± 5.3 µM. The “t1/2 of PS in the skin and the muscles” value in data set [3] (range over paw skin, paw muscle, leg muscle, normal mice, PS 8% ointment topical) lay within 11.4 to 20.6 h. Moreover, in data set [3] (setting [9]), the Cmax is 0.9 ± 0.1 µM, the “AUC0-24h of PS” value was 12.0 µM·h, the “T1/2 of PS” value stood at 57.4 h and the “Tmax of PS” value is 30 min. Moreover, the “effect on PWT compared to vehicle (treatment study)” value in data set [2] is “significant increase in PWT compared to vehicle and STZ”. In addition, the “PWT, gm Mean ± SEM” value in data set [2] (treatment protocol, PS 8% hydrogel topically to both hind paws 3 times a day for 3 weeks from week 4 after STZ, PWT at week 7, 30 min after last treatment) came out at 22.5 ± 2.20 gm.
